Data: ChEMBL document CHEMBL4387701, “H2depda: An acyclic adjuvant potentiates meropenem activity in vitro against metallo-β-lactamase-producing enterobacterales” (Eur J Med Chem, 2019)
Converted amounts (≈) assume the structure as drawn.

Key:
[1] = test system: Stenotrophomonas maltophilia; assay: Potency index, ratio of EDTA IC50 to test compound IC50 for Stenotrophomonas maltophilia NDM1 expressed in Escherichia coli BL21 (DE3) expressing measured after 15 minutes at interval of 60s
Enterobacter cloacae [2] = assay: Inhibition of NDM1 in Enterobacter cloacae isolate 5 assessed as potentiation of meropenem-induced antibacterial activity by measuring meropenem MIC after 24 hrs by broth microdilution assay (reference value: 640 ug/ml)
Escherichia coli [3] = assay: Inhibition of NDM1 in Escherichia coli isolate 1 assessed as potentiation of meropenem-induced antibacterial activity by measuring meropenem MIC after 24 hrs by broth microdilution assay (reference value: 1280 ug/ml)
[4] = test system: Escherichia coli ATCC 25922; assay: Inhibition of IMP-4 in Escherichia coli ATCC 25922 assessed as potentiation of meropenem-induced antibacterial activity by measuring diameter of inhibition zone measured after 18 hrs by agar disk diffusion method
[5] = biological target: T1, Metallo-beta-lactamase NDM-4 (Escherichia coli) (UniProt H6WZS9); assay: Inhibition of NDM4 in Escherichia coli ATCC 25922 assessed as potentiation of meropenem-induced antibacterial activity by measuring zone of inhibition by agar disk diffusion method
T1 sequence (whole entry): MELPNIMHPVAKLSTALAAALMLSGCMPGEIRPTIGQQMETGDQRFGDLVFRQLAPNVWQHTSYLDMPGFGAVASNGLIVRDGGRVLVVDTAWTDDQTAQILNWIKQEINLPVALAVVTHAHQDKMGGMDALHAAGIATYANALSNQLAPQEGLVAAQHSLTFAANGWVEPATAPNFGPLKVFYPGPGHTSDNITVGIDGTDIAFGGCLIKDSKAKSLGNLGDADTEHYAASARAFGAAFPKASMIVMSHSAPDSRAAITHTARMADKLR

Escherichia coli [6] = assay: Inhibition of IMP4 in Escherichia coli isolate 11 assessed as potentiation of meropenem-induced antibacterial activity by measuring meropenem MIC after 24 hrs by broth microdilution method (reference value: 32 ug/ml)
Klebsiella pneumoniae [7] = assay: Inhibition of IMP4 in Klebsiella pneumoniae isolate 12 assessed as potentiation of meropenem-induced antibacterial activity by measuring meropenem MIC after 24 hrs by broth microdilution method (reference value: 16 ug/ml)
Escherichia coli [8] = assay: Inhibition of IMP4 in Escherichia coli isolate 14 assessed as potentiation of meropenem-induced antibacterial activity by measuring meropenem MIC after 24 hrs by broth microdilution method (reference value: 16 ug/ml)
Enterobacter cloacae [9] = assay: Inhibition of IMP4 in Enterobacter cloacae isolate 16 assessed as potentiation of meropenem-induced antibacterial activity by measuring meropenem MIC after 24 hrs by broth microdilution method (reference value: 64 ug/ml)
Klebsiella pneumoniae [10] = assay: Inhibition of IMP4 in Klebsiella pneumoniae isolate 17 assessed as potentiation of meropenem-induced antibacterial activity by measuring meropenem MIC after 24 hrs by broth microdilution method (reference value: 32 ug/ml)
Enterobacter cloacae [11] = assay: Inhibition of IMP4 in Enterobacter cloacae clinical isolate 15 assessed as potentiation of meropenem-induced antibacterial activity by measuring reduction in meropenem MIC after 24 hrs by broth microdilution method (reference value: 32 ug/ml)
HeLa [12] = assay: Cytotoxicity against human HeLa cells assessed as inhibition of growth after 24 hrs by CCK8 assay; format: cell-based
HeLa [13] = assay: Cytotoxicity against human HeLa cells at 64 ug/mL after 24 hrs by calcein AM/propidium iodide staining based fluorescence microscopic method; format: cell-based
[14] = Non-competitive inhibition of bacterial NDM1 (G28 to R270 residues) expressed in Escherichia coli BL21 (DE3) using varying levels of MEPM as substrate preincubated for 15 mins followed by substrate addition measured at 60 secs interval up to 60 mins by Lineweaver-Burk plot analysis; design: species or system Bacteria
Escherichia coli [15] = assay: Effect on growth of NDM4-positive Escherichia coli assessed as bacterial growth at 64 ug/mL after 24 hrs by broth microdilution method relative to control; format: organism-based
Escherichia coli [16] = assay: Effect on growth of Escherichia coli isolate 3 after 24 hrs by broth microdilution assay; format: organism-based
Citrobacter freundii = assay: Effect on growth of Citrobacter freundii isolate 7 after 24 hrs by broth microdilution assay; format: organism-based
Escherichia coli [17] = assay: Effect on growth of Escherichia coli isolate 9 after 24 hrs by broth microdilution assay; format: organism-based
Klebsiella pneumoniae [18] = assay: Effect on growth of Klebsiella pneumoniae isolate 13 after 24 hrs by broth microdilution method; format: organism-based
Enterobacter cloacae [19] = assay: Effect on growth of Enterobacter cloacae isolate 15 after 24 hrs by broth microdilution method; format: organism-based
Enterobacter cloacae [20] = assay: Effect on growth of Enterobacter cloacae isolate 16 after 24 hrs by broth microdilution method; format: organism-based
Escherichia coli [21] = assay: Effect on growth of Escherichia coli isolate 18 after 24 hrs by broth microdilution method; format: organism-based
[22] = biological target: T1, Metallo-beta-lactamase NDM-4 (Escherichia coli); assay: Inhibition of NDM4 in Escherichia coli isolate 3 assessed as potentiation of meropenem-induced bactericidal activity by measuring log reduction in bacterial colonies at 64 ug/ml incubated for 24 hrs followed by replating on agar plates for 16 to 18 hrs and measured up to 24 hrs by time kill assay
HeLa [23] = assay: Cytotoxicity against human HeLa cells at 128 ug/mL after 24 hrs by calcein AM/propidium iodide staining based fluorescence microscopic method; format: cell-based
[24] = Competitive inhibition of bacterial NDM1 (G28 to R270 residues) expressed in Escherichia coli BL21 (DE3) using varying levels of MEPM as substrate preincubated for 15 mins followed by substrate addition measured at 60 secs interval up to 60 mins by Lineweaver-Burk plot analysis; design: species or system Bacteria
[25] = biological target: T1, Metallo-beta-lactamase NDM-4 (Escherichia coli); assay: Inhibition of NDM4 in Escherichia coli isolate 3 assessed as potentiation of meropenem-induced bactericidal activity by measuring bacterial killing at 64 ug/ml incubated for 24 hrs followed by replating on agar plates for 16 to 18 hrs and measured up to 24 hrs by time kill assay relative to control

SMILES	MIC (Enterobacter cloacae [2])	MIC (Escherichia coli [3])	inhibition zone (IZ) [4]	inhibition zone (IZ) [5]	MIC (Escherichia coli [6])	MIC (Klebsiella pneumoniae [7])	MIC (Escherichia coli [8])	MIC (Enterobacter cloacae [9])	MIC (Klebsiella pneumoniae [10])	fold change (FC) (Enterobacter cloacae [11])	IC50 (HeLa [12])	Activity (Escherichia coli [15])	MIC (Escherichia coli [16])	MIC (Citrobacter freundii)	MIC (Escherichia coli [17])	MIC (Klebsiella pneumoniae [18])	MIC (Enterobacter cloacae [19])	MIC (Enterobacter cloacae [20])	MIC (Escherichia coli [21])	further results
COc1ccc(CN(CCN(Cc2ccc(OC)cc2)Cc2cccc(C(=O)O)n2)Cc2cccc(C(=O)O)n2)cc1	0.5 µg/mL	0.125 µg/mL	2 to 5 mm	21.4 mm	4 µg/mL	1 µg/mL	4 µg/mL	2 µg/mL	8 µg/mL	64	> 1000 µg/mL	95%	64 µg/mL (≈ 112 µM)	32 µg/mL (≈ 56.1 µM)	32 µg/mL (≈ 56.1 µM)	32 µg/mL (≈ 56.1 µM)	32 µg/mL (≈ 56.1 µM)	32 µg/mL (≈ 56.1 µM)	32 µg/mL (≈ 56.1 µM)	Ratio IC50 [1]: 200; Activity (HeLa [13]): Non-Toxic; Ki [14]: 144 nM
O=C(O)c1cccc(CNCCNCc2cccc(C(=O)O)n2)n1	0.5 µg/mL	0.125 µg/mL	2 to 5 mm	20.2 mm	4 µg/mL	0.5 µg/mL	4 µg/mL	2 µg/mL	8 µg/mL	64	> 1000 µg/mL	95%	32 µg/mL (≈ 96.9 µM)	32 µg/mL (≈ 96.9 µM)	32 µg/mL (≈ 96.9 µM)	32 µg/mL (≈ 96.9 µM)	32 µg/mL (≈ 96.9 µM)	32 µg/mL (≈ 96.9 µM)	32 µg/mL (≈ 96.9 µM)	FC [22]: 3; Activity (HeLa [23]): Non-Toxic; Ki [24]: 680 nM; inhibition [25]: 99.9%
